Conditions: research at the DRiWATER lab

For `CC(=O)O` [acetic acid], the “effect on gel degradation in soil” value was “will slow gel degradation in soil”.

— patent publication US20100115832A1, “MOISTURIZING AGENT WITH NUTRIENTS” (priority 2006, published 2010)
